Laboratory results published in US20200171056A1, “SULFONYLUREA COMPOUNDS IN THE TREATMENT OF DISEASE ASSOCIATED WITH UV-INDUCED DAMAGE” (CeMM - Forschungszentrum für Molekulare Medizin GmbH, priority 2017, published 2020).

Tests used:
Format in all cases: cell-based, human
ΔXPA cells = experiment: Short-term survival after UV irradiation (CellTiter-Glo); details: 0.5 mM acetohexamide for 6 hours, then UV; survival after 3 days (FIG. 1D)
Text: A. Schematic representation of the experimental setup used to perform the high-throughput drug screen, where drugs were used at five-times maximal plasma concentration (CLOUD; CeMM library of unique drugs). B. Bubble plot displaying the drugs used plotted against cell viability. Light grey bubbles indicate wildtype (WT) cells, dark grey bubbles indicate XPA-deficient cells (ΔXPA). […] C. Chemical structure of acetohexamide. D. Dose-response curve of WT and ΔXPA cells treated with or without 0.5 mM acetohexamide for 6 hours, followed by UV irradiation. Survival was assessed after 3 days, using CellTiter-Glo. […] Error bars indicate SEM (n=3). E. Colony formation using the same conditions indicated in (D), where cells were kept in culture for 10 days following UV irradiation, following which they were fixed and stained.
A-C. Cell viability of ΔXPA cells treated with different concentrations of acetohexamide (aceto), gliclazide (GLC) and glimepiride (GLM) for 6 hours, followed by 10 J/M^2 of UV irradiation. D. Survival of WT and ΔXPA cells treated with or without 50 μM glibenclamide for 6 hours, followed by UV exposure. Survival was assessed after 3 days using CellTitre-Glo. E. Cell viability of ΔXPA cells treated with 10 μM of different derivatives of acetohexamide for 6 hours, followed by UV irradiation with 5 J/M^2.
For UV irradiation, cells were washed with PBS, trypsinized, counted and distributed in equal number then irradiated with different doses of UV as indicated. Finally, 1,000 cells were re-distributed into 96 well plates. After 72 hours, survival was measured using Cell Titer-Glo (Promega). Cells were irradiated with UVC using the UVP CX-2000 device (254 nm, Fisher Scientific).

WT and ΔXPA cells = experiment: Cell cycle analysis (propidium iodide, FACS); details: 0.5 mM for 6 hours, WT vs ΔXPA (FIG. 8A)
Method: A. WT and ΔXPA cells were either treated with DMSO or 0.5 mM acetohexamide for 6 hours. Cell cycle profiles were determined using propidium iodide (P1) staining followed by FACS analysis. B-D. Survival of WT HAP1 cells treated with either DMSO or 0.5 mM acetohexamide for 6 hours, followed by exposure to the indicated DNA damaging agents (MMC: mitomycin C; HU: hydroxyl urea; MMS: methyl methanesulfonate). Survival was assessed after 3 days using CellTitre-Glo. E. Cell viability of WT cells treated either with 0.5 mM acetohexamide or 30 μM N-acetylcysteine (NAC) for 6 hours, followed by 30 J/M^2 UV exposure.
Cells were treated with either DMSO or acetohexamide as indicated. Cell cycle stages were identified using propidium iodide (PI) staining. Briefly, cells were harvested, resuspended in PBS and fixed overnight with cold 70% ethanol. After centrifugation, ethanol was removed and cells were resuspended in PBS containing 1 μg/mL RNase A and […]. Finally, cells were analyzed on a FACScalibur flow cytometer. Following cell acquisition, analysis was performed using FlowJo software (Tree Star).

CPDs in XPA^Δ/Δ cells = experiment: Immunofluorescence for cyclobutane pyrimidine dimers; details: 0.5 mM for 6 hours
Method: A. Dose-response curve of WT and ΔXPA cells treated with or without 0.5 mM acetohexamide for 6 hours, followed by illudin S treatment. Survival was assessed after 3 days using CellTiter-Glo. B. Colony formation of WT fibroblasts (BJ) and XPA-patient derived fibroblasts (XPA^Δ/Δ) treated with or without 0.5 mM acetohexamide for 6 hours, followed by UV irradiation (as indicated) and then kept in culture for 10 days. C. WT BJ and XPA^Δ/Δ fibroblastoid cells were treated with 0.5 mM acetohexamide for 6 hours, irradiated with 15 J/M^2 and then fixed and immunostained with an anti-cyclobutane pyrimidine dimer (CPD) antibody at the indicated times. Nuclear DNA was counterstained with DAPI. Scale bar, 10 μm. D. Scatter plot displaying the quantification of CPD intensities per nucleus of WT and XPA^Δ/Δ cells in the presence or absence of 0.5 mM acetohexamide, of more than 100 cells. Red lines within each column represent median intensities. A.u.=arbitrary unit.
For measurement of cyclobutane pyrimidine dimers (CPDs), cells were seeded onto coverslips (VWR) in 5 cm dishes. On the following day, cells were treated as indicated. Next, they were washed twice with PBS and fixed with 4% paraformaldehyde (PFA) for 10 minutes at room temperature (RT), then permeabilized with 0.5% Triton X-100 in PBS for 5 minntes at RT. […] Quantification was performed using CellProfiler.

SUR1 transcript = experiment: SUR1 mRNA expression by quantitative reverse transcription PCR; details: ΔXPA cells, 0.5 mM for 6 hours, 15 J/M^2 UV (FIG. 9B)
Method: A. Fragments Per Kilobase Million (FPKM) for SUR1 and GAPDH in HAP1 WT cells compared, from RNA sequencing. B. mRNA expression of SUR1 transcript assessed by quantitative reverse transcription PCR in WT and ΔXPA cells with or without 0.5 mM acetohexamide treatment for 6 hours, followed by 15 J/M^2 UV irradiation and subsequent recovery as indicated. Expression of GAPDH was used as a reference. Error bars indicate SEM (n=3).
WT and ΔXPA HAP1 cells were harvested and RNA was isolated using phenol-chlorophorm extraction. After treatment with 1 μl DNase (Sigma), the cDNA was transcribed using SuperScript III Reverse Transcriptase (Invitrogen). An amount of 1 μg of cDNA template was used for the qRT-PCR using SYBR Green qPCR Mastermix (Qiagen). Analysis was performed in triplicates using GAPDH as a control gene. The PCR was performed on a 7900HT Fast Real-Time PCR System (Applied Biosystems). The following primers were used: […]

In the case of `CC(=O)c1ccc(S(=O)(=O)NC(=O)NC2CCCCC2)cc1` [acetohexamide], the “UV sensitivity of ΔXPA cells, short-term dose response assay” value (ΔXPA cells) is reported as “alleviated the UV sensitivity of ΔXPA cells almost to the level of wildtype cells”, the cell cycle profiles (WT and ΔXPA cells) is reported as “no difference between wildtype or ΔXPA cells upon acetohexamide treatment” and the “initial amount of CPDs” value (CPDs in XPA^Δ/Δ cells; 15 J/M^2 (FIG. 2C-D)) is reported as “did not affect the initial amount of CPDs”. For the same molecule, the “clearance of CPDs” value (CPDs in XPA^Δ/Δ cells; XPA^Δ/Δ cells, 15 J/M^2, 24 hours post UV (FIG. 2C-D)) was “led to the clearance of CPDs in XPA^Δ/Δ cells” and the SUR1 expression (SUR1 transcript) was “not expressed”.
